According to patent publication US9949479B2 (priority 2015, dated 2018):
Values joined by “and” are separate entries in the source; they are usually repeats but may differ in a detail not shown here. Equal values may be shown once. Read-outs that look alike come from different tables or passages of the source.

What was measured:
Fusarium asiaticum = assay: microbe, parasite or virus in culture; format: cell-based
powdery mildew fungus = format: in vivo; details: seed treatment; dose as in E133
leaf rust fungus = format: in vivo; details: seed treatment; dose as in E133
[1] = parameters: species or system wheat; details: in vivo
leaf blight [2] = format: in vivo; details: dose as in E154
powdery mildew [3] = format: in vivo; details: dose as in E154
rust [4] = format: in vivo; details: dose as in E154
[5] = format: in vivo, wheat; details: dose as in E162
wheat scab [6] = format: in vivo, Fusarium spp.
leaf blight [7] = format: in vivo
powdery mildew [8] = format: in vivo
rust [9] = format: in vivo
[10] = format: in vivo, wheat
wheat scab [11] = format: in vivo, Fusarium spp.; remark: listed apart in the source
leaf blight [12] = format: in vivo; remark: listed apart in the source
powdery mildew [13] = format: in vivo; remark: listed apart in the source
rust [14] = format: in vivo; remark: listed apart in the source
wheat scab [15] = format: in vivo, Fusarium spp.; remark: listed apart in the source
leaf blight [16] = format: in vivo; remark: listed apart in the source
powdery mildew [17] = format: in vivo; remark: listed apart in the source
rust [18] = format: in vivo; remark: listed apart in the source
[19] = parameters: species or system wheat; details: in vivo; remark: listed apart in the source
wheat scab [20] = format: in vivo, Fusarium spp.; details: Serial 5: preparation 100 g/mu; jinggangmycin 20, metconazole 0 g ai./mu
powdery mildew [21] = format: in vivo; details: Serial 5: preparation 100 g/mu; jinggangmycin 20, metconazole 0 g ai./mu
rust [22] = format: in vivo; details: Serial 5: preparation 100 g/mu; jinggangmycin 20, metconazole 0 g ai./mu
wheat scab [23] = format: in vivo, Fusarium spp.; details: Serial 5: preparation 100; jinggangmycin 20, metconazole 0 g ai./mu
leaf blight [24] = format: in vivo; details: Serial 5: preparation 100; jinggangmycin 20, metconazole 0 g ai./mu
rust [25] = format: in vivo; details: Serial 5: preparation 100; jinggangmycin 20, metconazole 0 g ai./mu
wheat scab [26] = format: in vivo, Fusarium spp.; remark: listed apart in the source
powdery mildew [27] = format: in vivo; remark: listed apart in the source
[28] = Serial 11: jinggangmycin 36 g ai./mu alone
[29] = Serial 12: jinggangmycin 18 g ai./mu alone
[30] = Serial 13: jinggangmycin 15 g ai./mu alone
[31] = Serial 14: jinggangmycin 7.5 g ai./mu alone
[32] = Serial 15: jinggangmycin 5 g ai./mu alone
[33] = Serial 16: jinggangmycin 2.5 g ai./mu alone
[34] = Serial 17: jinggangmycin 3 g ai./mu alone
[35] = Serial 18: jinggangmycin 1.5 g ai./mu alone
[36] = Serial 19: jinggangmycin 1 g ai./mu alone
[37] = Serial 20: jinggangmycin 0.5 g ai./mu alone
[38] = Serial 5: preparation 100 g/mu, jinggangmycin 20 g ai./mu alone
[39] = Serial 6: preparation 80 g/mu, jinggangmycin 16 g ai./mu alone
[40] = Serial 7: preparation 40 g/mu, jinggangmycin 8 g ai./mu alone
[41] = Serial 8: preparation 20 g/mu, jinggangmycin 4 g ai./mu alone
[42] = Serial 5: preparation 50 g/mu, jinggangmycin 10 g ai./mu alone
[43] = Serial 6: preparation 37.5 g/mu, jinggangmycin 7.5 g ai./mu alone
[44] = Serial 7: preparation 15 g/mu, jinggangmycin 3 g ai./mu alone
[45] = Serial 5: preparation 75 g/mu, jinggangmycin 15 g ai./mu alone
[46] = Serial 6: preparation 60 g/mu, jinggangmycin 12 g ai./mu alone
[47] = Serial 7: preparation 45 g/mu, jinggangmycin 9 g ai./mu alone
[48] = Serial 8: preparation 30 g/mu, jinggangmycin 6 g ai./mu alone

OCC1=C[C@H](NC2C[C@H](CO)[C@@H](OC3O[C@H](CO)[C@@H](O)[C@H](O)[C@H]3O)[C@H](O)[C@H]2O)[C@H](O)[C@@H](O)[C@@H]1O (stereo partly shown) [Jinggangmycin A, jinggangmycin A]
Average Fungal Colony Diameter F.a (Fusarium asiaticum): 76.3 mm and 75.6 mm and 69.4 mm | inhibition at 50 µg/mL (Fusarium asiaticum; Fusarium asiaticum, read-out: Growth Inhibition Rate F.a): 7.8% | Incidence Prevention Effect % Powdery Mildew (powdery mildew fungus): 0% and 6.5% | Incidence Prevention Effect % Rust (leaf rust fungus): 0% and 4.5% | Thousand Kernel Weight [1]: 43.2 g and 42.8 g and 42.9 g and 42.6 g and 42.0 g and 39.6 g | Disease Index Prevention Effect % Leaf Blight (leaf blight [2]): 0% and 6.9% | Disease Index Prevention Effect % Powdery Mildew (powdery mildew [3]): 0% and 3.4% | Disease Index Prevention Effect % Rust (rust [4]): 0% | Grain Toxin Content [5]: 2.89 μg/g of kernels and 3.24 μg/g of kernels and 3.86 μg/g of kernels and 4.20 μg/g of kernels and 4.77 μg/g of kernels | Disease Index Prevention Effect % Head Blight (wheat scab [6]; [28]): 31.6% | Disease Index Prevention Effect % Head Blight (wheat scab [6]; [29]): 28.9% | Disease Index Prevention Effect % Head Blight (wheat scab [6]; [30]): 24.3% | Disease Index Prevention Effect % Head Blight (wheat scab [6]; [31]): 16.9% | Disease Index Prevention Effect % Head Blight (wheat scab [6]; [32]): 5.2% | Disease Index Prevention Effect % Head Blight (wheat scab [6]; [33]): 0% | Disease Index Prevention Effect % Head Blight (wheat scab [6]; [34]): 0% | Disease Index Prevention Effect % Head Blight (wheat scab [6]; [35]): 0% | Disease Index Prevention Effect % Head Blight (wheat scab [6]; [36]): 0% | Disease Index Prevention Effect % Head Blight (wheat scab [6]; [37]): 0% | Disease Index Prevention Effect % Leaf Blight (leaf blight [7]; [28]): 5.8% | Disease Index Prevention Effect % Leaf Blight (leaf blight [7]; [29]): 5.0% | Disease Index Prevention Effect % Leaf Blight (leaf blight [7]; [30]): 4.6% | Disease Index Prevention Effect % Leaf Blight (leaf blight [7]; [31]): 0% | Disease Index Prevention Effect % Leaf Blight (leaf blight [7]; [32]): 0% | Disease Index Prevention Effect % Leaf Blight (leaf blight [7]; [33]): 0% | Disease Index Prevention Effect % Leaf Blight (leaf blight [7]; [34]): 0% | Disease Index Prevention Effect % Leaf Blight (leaf blight [7]; [35]): 0% | Disease Index Prevention Effect % Leaf Blight (leaf blight [7]; [36]): 0% | Disease Index Prevention Effect % Leaf Blight (leaf blight [7]; [37]): 0% | Disease Index Prevention Effect % Powdery Mildew (powdery mildew [8]; [28]): 8.5% | Disease Index Prevention Effect % Powdery Mildew (powdery mildew [8]; [29]): 7.8% | Disease Index Prevention Effect % Powdery Mildew (powdery mildew [8]; [30]): 7.6% | Disease Index Prevention Effect % Powdery Mildew (powdery mildew [8]; [31]): 0% | Disease Index Prevention Effect % Powdery Mildew (powdery mildew [8]; [32]): 0% | Disease Index Prevention Effect % Powdery Mildew (powdery mildew [8]; [33]): 0% | Disease Index Prevention Effect % Powdery Mildew (powdery mildew [8]; [34]): 0% | Disease Index Prevention Effect % Powdery Mildew (powdery mildew [8]; [35]): 0% | Disease Index Prevention Effect % Powdery Mildew (powdery mildew [8]; [36]): 0% | Disease Index Prevention Effect % Powdery Mildew (powdery mildew [8]; [37]): 0% | Disease Index Prevention Effect % Rust (rust [9]; [28]): 7.6% | Disease Index Prevention Effect % Rust (rust [9]; [29]): 7.2% | Disease Index Prevention Effect % Rust (rust [9]; [30]): 7.2% | Disease Index Prevention Effect % Rust (rust [9]; [31]): 0% | Disease Index Prevention Effect % Rust (rust [9]; [32]): 0% | Disease Index Prevention Effect % Rust (rust [9]; [33]): 0% | Disease Index Prevention Effect % Rust (rust [9]; [34]): 0% | Disease Index Prevention Effect % Rust (rust [9]; [35]): 0% | Disease Index Prevention Effect % Rust (rust [9]; [36]): 0% | Disease Index Prevention Effect % Rust (rust [9]; [37]): 0% | Grain Toxin Content (mg of DON/Kg of grain) [10, 28]: 2.61 mg of DON/Kg of grain | Rate of Decrease in Toxin Content in Grains (%) [10, 28]: 59.6% | Grain Toxin Content (mg of DON/Kg of grain) [10, 29]: 2.86 mg of DON/Kg of grain | Rate of Decrease in Toxin Content in Grains (%) [10, 29]: 55.7% | Grain Toxin Content (mg of DON/Kg of grain) [10, 30]: 2.94 mg of DON/Kg of grain | Rate of Decrease in Toxin Content in Grains (%) [10, 30]: 54.5% | Grain Toxin Content (mg of DON/Kg of grain) [10, 31]: 3.42 mg of DON/Kg of grain | Rate of Decrease in Toxin Content in Grains (%) [10, 31]: 47.1% | Grain Toxin Content (mg of DON/Kg of grain) [10, 32]: 3.86 mg of DON/Kg of grain | Rate of Decrease in Toxin Content in Grains (%) [10, 32]: 40.2% | Grain Toxin Content (mg of DON/Kg of grain) [10, 33]: 3.92 mg of DON/Kg of grain | Rate of Decrease in Toxin Content in Grains (%) [10, 33]: 39.3% | Grain Toxin Content (mg of DON/Kg of grain) [10, 34]: 3.96 mg of DON/Kg of grain | Rate of Decrease in Toxin Content in Grains (%) [10, 34]: 38.7% | Grain Toxin Content (mg of DON/Kg of grain) [10, 35]: 4.82 mg of DON/Kg of grain | Rate of Decrease in Toxin Content in Grains (%) [10, 35]: 25.4% | Grain Toxin Content (mg of DON/Kg of grain) [10, 36]: 5.80 mg of DON/Kg of grain | Rate of Decrease in Toxin Content in Grains (%) [10, 36]: 10.2% | Grain Toxin Content (mg of DON/Kg of grain) [10, 37]: 5.86 mg of DON/Kg of grain | Rate of Decrease in Toxin Content in Grains (%) [10, 37]: 9.3% | Disease Index Prevention Effect % Head Blight (wheat scab [11]; [38]): 32.0% | Disease Index Prevention Effect % Head Blight (wheat scab [11]; [39]): 25.4% | Disease Index Prevention Effect % Head Blight (wheat scab [11]; [40]): 14.7% | Disease Index Prevention Effect % Head Blight (wheat scab [11]; [41]): 0% | Disease Index Prevention Effect % Leaf Blight (leaf blight [12]; [38]): 8.6% | Disease Index Prevention Effect % Leaf Blight (leaf blight [12]; [39]): 8.8% | Disease Index Prevention Effect % Leaf Blight (leaf blight [12]; [40]): 5.8% | Disease Index Prevention Effect % Leaf Blight (leaf blight [12]; [41]): 0% | Disease Index Prevention Effect % Powdery Mildew (powdery mildew [13]; [38]): 12.6% | Disease Index Prevention Effect % Powdery Mildew (powdery mildew [13]; [39]): 11.9% | Disease Index Prevention Effect % Powdery Mildew (powdery mildew [13]; [40]): 0% | Disease Index Prevention Effect % Powdery Mildew (powdery mildew [13]; [41]): 0% | Disease Index Prevention Effect % Rust (rust [14]; [38]): 6.8% | Disease Index Prevention Effect % Rust (rust [14]; [39]): 6.5% | Disease Index Prevention Effect % Rust (rust [14]; [40]): 0% | Disease Index Prevention Effect % Rust (rust [14]; [41]): 0% | Disease Index Prevention Effect % Head Blight (wheat scab [15]; [42]): 32.4% | Disease Index Prevention Effect % Head Blight (wheat scab [15]; [43]): 24.2% | Disease Index Prevention Effect % Head Blight (wheat scab [15]; [44]): 0% | Disease Index Prevention Effect % Leaf Blight (leaf blight [16]; [42]): 8.6% | Disease Index Prevention Effect % Leaf Blight (leaf blight [16]; [43]): 8.8% | Disease Index Prevention Effect % Leaf Blight (leaf blight [16]; [44]): 5.8% | Disease Index Prevention Effect % Powdery Mildew (powdery mildew [17]; [42]): 12.6% | Disease Index Prevention Effect % Powdery Mildew (powdery mildew [17]; [43]): 11.9% | Disease Index Prevention Effect % Powdery Mildew (powdery mildew [17]; [44]): 0% | Disease Index Prevention Effect % Rust (rust [18]; [42]): 6.8% | Disease Index Prevention Effect % Rust (rust [18]; [43]): 6.5% | Disease Index Prevention Effect % Rust (rust [18]; [44]): 0% | Thousand Kernel Weight [19]: 39.6 g and 39.0 g and 37.9 g | Disease Index Prevention Effect % Head Blight (wheat scab [20]): 40.2% | Disease Index Prevention Effect % Powdery Mildew (powdery mildew [21]): 10.6% | Disease Index Prevention Effect % Rust (rust [22]): 6.5% | Disease Index Prevention Effect % Head Blight (wheat scab [23]): 34.2% | Disease Index Prevention Effect % Leaf Blight (leaf blight [24]): 7.8% | Disease Index Prevention Effect % Rust (rust [25]): 6.5% | Disease Index Prevention Effect % Head Blight (wheat scab [26]; [45]): 34.2% | Disease Index Prevention Effect % Head Blight (wheat scab [26]; [46]): 10.2% | Disease Index Prevention Effect % Head Blight (wheat scab [26]; [47]): 9.4% | Disease Index Prevention Effect % Head Blight (wheat scab [26]; [48]): 7.4% | Disease Index Prevention Effect % Powdery Mildew (powdery mildew [27]; [45]): 8.6% | Disease Index Prevention Effect % Powdery Mildew (powdery mildew [27]; [46]): 6.6% | Disease Index Prevention Effect % Powdery Mildew (powdery mildew [27]; [47]): 3.0% | Disease Index Prevention Effect % Powdery Mildew (powdery mildew [27]; [48]): 1.8%
